Results on one molecule are retold here after patent US7935526B2, “hERG channel-expressing cell” (priority 2003, dated 2011).

The series relates to hERG channel-expressing cells.

Molecules are shown by their SMILES.

Protocol: Specifically, changes in membrane potential may be measured by performing the following operations in a manner as described below. The hERG channel-expressing cell of the invention is cultured for a specific period of time by the appropriate method as described above and suspended in a buffer suitable for measurement. […] Preferably, phosphate buffered saline (pH 7.4) is used. It is preferred that the cell suspension be prepared to give a concentration of 0.2×10^5 cells/ml to 1.0×10^6 cells/ml. Subsequently, the cell suspension is plated on plates (such as Biocoat Poly-D-Lysine 384-Well Black/Clear Plate; BECKTON DICKINSON) and cultured further Cells may be plated at 500 cells/well to 25000 cells/well. Preferably, cells are cultured for about two days after the plating. […] About one hour after the addition of Component A, changes in membrane potential may be measured with FLIPR (Molecular Devices) or FDSS6000 (Hamamatsu Photonics). […] Measurement may be performed at room temperature. hERG inhibitory activity may be calculated from the change in fluorescence intensity caused by the addition of the test compound. […]
About one hour after the addition of Component A, changes in membrane potential were measured with FDSS6000. […] Measurement was performed at room temperature. hERG inhibitory activity was calculated from the fluorescence intensity change for 5 min after the addition of the test substance. […]

In the case of `[Cl-].[K+]` [KCl], the “changes in membrane potential (fluorescence intensity change)” value is recorded as “the membrane potential was depolarized”.
